From ChEMBL document CHEMBL4364263, “Synthesis and biological evaluation of 2,4,5-trisubstituted thiazoles as antituberculosis agents effective against drug-resistant tuberculosis” (Eur J Med Chem, 2019) come the findings set out here.

One data set has as its system Klebsiella pneumoniae. Kind of data set: Antibacterial activity against Klebsiella pneumoniae BAA-1705 assessed as growth inhibition incubated for 18 to 24 hrs by broth microdilution based antibiotic susceptibility testing method. Type of data set: functional. The settings on record: ATCC BAA-1705.
The subject of data set [1] is CHO-K1. Nature of the data set: Cytotoxicity against CHOK1 cells assessed as reduction in cell viability incubated for 24 hrs by MTT assay. It counts as cell-based. The settings on record: Cricetulus griseus, CHO-K1, 24 h.
In a further data set the test system is Pseudomonas aeruginosa. Nature of the data set: Antibacterial activity against Pseudomonas aeruginosa ATCC 27853 assessed as growth inhibition incubated for 18 to 24 hrs by broth microdilution based antibiotic susceptibility testing method. Type of data set: functional.
Data set [2] relates to Mycobacterium tuberculosis. Kind of data set: Antitubercular activity against replicating Mycobacterium tuberculosis H37Rv assessed as growth inhibition measured after 7 days incubation by microplate alamar blue assay. Type of data set: functional. The settings on record: 168 h.
For another data set, the system named is Escherichia coli. Kind of data set: Antibacterial activity against Escherichia coli ATCC 25922 assessed as growth inhibition incubated for 18 to 24 hrs by broth microdilution based antibiotic susceptibility testing method. It counts as functional.
Another data set has as its system Staphylococcus aureus. Kind of data set: Antibacterial activity against Staphylococcus aureus ATCC 29213 assessed as growth inhibition incubated for 18 to 24 hrs by broth microdilution based antibiotic susceptibility testing method. Type of data set: functional.
The test system of a further data set is B16-F10. Nature of the data set: Cytotoxicity against mouse B16F10 cells assessed as cell viability at 10 uM incubated for 24 hrs by MTT assay. Type of data set: cell-based. The settings on record: b16-f10, 24 h.
Data set [3] relates to CHO-K1. Nature of the data set: Cytotoxicity against CHOK1 cells assessed as cell viability at 8 ug/ml incubated for 24 hrs by MTT assay. The settings on record: chinese hamster, cho-k1, 24 h. Type of data set: cell-based, Cricetulus griseus.
Data set [4] relates to Mycolicibacterium fortuitum. Nature of the data set: Antimycobacterial activity against Mycobacterium fortuitum assessed as growth inhibition. Type of data set: functional, organism-based.
The test system of data set [5] is Mycobacterium tuberculosis. Kind of data set: Antimycobacterial activity against dormant stage of Mycobacterium tuberculosis H37Ra ATCC 25177 assessed as growth inhibition at 10 uM incubated for 12 days by XRMA method relative to control. It counts as functional. The settings on record: H37Ra ATCC 25177, 288 h.
The test system of data set [6] is Mycobacteroides abscessus. Kind of data set: Antimycobacterial activity against Mycobacterium abscessus assessed as growth inhibition. It counts as functional, organism-based.
Data set [7] is described as follows: Selectivity index, ratio of IC50 for CHOK1 cells to MIC for Mycobacterium tuberculosis H37Rv. Type of data set: toxicity. The conditions noted are these: hamster, CHO-K1 cells; read-out: Selectivity Index.
Another data set has as its system Mycobacteroides chelonae. Kind of data set: Antimycobacterial activity against Mycobacterium chelonae assessed as growth inhibition. It counts as functional, organism-based.
The subject of a further data set is MCF7. Nature of the data set: Cytotoxicity against human MCF7 cells assessed as cell viability at 10 uM incubated for 24 hrs by MTT assay. Type of data set: cell-based. The settings on record: mcf7, 24 h.
In the next data set the test system is Acinetobacter baumannii. Nature of the data set: Antibacterial activity against Acinetobacter baumannii BAA-1605 assessed as growth inhibition incubated for 18 to 24 hrs by broth microdilution based antibiotic susceptibility testing method. It counts as functional.
Data set [8] concerns Mycobacterium tuberculosis. Kind of data set: Antitubercular activity against Mycobacterium tuberculosis H37Rv ATCC 27294 assessed as bacterial growth inhibition incubated for 5 days by standard microdilution method. Type of data set: functional. The settings on record: H37Rv ATCC 27294, 120 h.

Molecules are shown by their SMILES. Values after ≈ are worked out from the molar mass of the structure shown. Active and inactive are the calls of the source. The rule behind the calls is not given here.

Consider `CCOC(=O)c1nc(C2CCCCC2)sc1-c1ccc(C#N)cc1`, for which the MIC is more than 50 µM in the data set on Klebsiella pneumoniae; more than 50 µM with Pseudomonas aeruginosa; 2.1 µg/mL (≈ 6.17 µM) in [2]; more than 50 µM in the data set with Escherichia coli; 50 µM (≈ 17 µg/mL) with Staphylococcus aureus. The IC50 with CHO-K1 [1] worked out at 75.2 µg/mL (≈ 221 µM). Moreover, the Activity entry with B16-F10, with CHO-K1 [3] and in the data set with MCF7 was “Non-Toxic” throughout. Besides, the inhibition result (in data set [4]; in data set [6]; with Mycobacteroides chelonae) was “inactive” throughout. The inhibition at 10 µM in [5] amounted to 90.5%. In addition, the selectivity ratio in data set [7] worked out at 35.8.

In the case of `CCOC(=O)c1nc(C(C)C)sc1-c1ccc(C#N)cc1`, the MIC with Klebsiella pneumoniae was more than 50 µM; in the data set on Pseudomonas aeruginosa, more than 50 µM; in data set [2], 1.8 µg/mL (≈ 5.99 µM); in the data set on Escherichia coli it was more than 50 µM; in the data set on Staphylococcus aureus it was more than 50 µM. The IC50 with CHO-K1 [1] was 40.5 µg/mL (≈ 135 µM). Further, the Activity entry in the data set with B16-F10 and in the data set on MCF7 was “Non-Toxic” in each case. For the same molecule, the inhibition result (in data set [4]; in [6]; with Mycobacteroides chelonae) was “inactive” each time. Further, the inhibition at 10 µM in data set [5] was 82.7%. Besides, the selectivity ratio in [7] is 22.4.

With `CCOC(=O)c1nc(C(C)C)sc1-c1cnc2ccccc2c1`, the MIC in the data set on Klebsiella pneumoniae is more than 50 µM; with Pseudomonas aeruginosa, more than 50 µM; in data set [2] it was 4 µg/mL (≈ 12.3 µM); in the data set with Escherichia coli it was more than 50 µM; in the data set with Staphylococcus aureus, more than 50 µM. Also, the IC50 with CHO-K1 [1] was more than 50 µg/mL. Moreover, the Activity result in the data set on B16-F10 and in the data set on MCF7 was “Non-Toxic” in each case. Further, the inhibition entry (in [4]; in data set [6]; with Mycobacteroides chelonae) was “inactive” in each case. Further, the inhibition at 10 µM in data set [5] came out at 80.5%. Moreover, the selectivity ratio in data set [7] was more than 12.5.

As to `CCOC(=O)c1nc(C2CCCCC2)sc1-c1cccc(C#N)c1`, the minimum inhibitory concentration (MIC) in the data set on Klebsiella pneumoniae is more than 50 µM; in the data set on Pseudomonas aeruginosa, more than 50 µM; in data set [2], 4.2 µg/mL (≈ 12.3 µM); in the data set on Escherichia coli, more than 50 µM; in the data set on Staphylococcus aureus it was 50 µM (≈ 17 µg/mL). Moreover, in the data set with CHO-K1 [1], the IC50 was more than 50 µg/mL. Moreover, the Activity result in the data set on B16-F10 and in the data set with MCF7 was “Non-Toxic” in each case. The inhibition result (in data set [4]; in data set [6]; in the data set on Mycobacteroides chelonae) was “inactive” in each case. For the same molecule, the inhibition at 10 µM in data set [5] is 90.3%. Besides, in [7], the selectivity ratio was more than 11.9.

With `C[C@H]1COc2c(N3CCN(C)CC3)c(F)cc3c(=O)c(C(=O)O)cn1c23` [LEVOFLOXACIN], the results for the MIC in the data set with Escherichia coli and in the data set with Acinetobacter baumannii were less than 30 µM and 8 µM (≈ 2.89 µg/mL), respectively.

With `CCOC(=O)c1nc(C2CCCCC2)sc1-c1ccccc1C#N`, the MIC with Klebsiella pneumoniae was more than 50 µM; with Pseudomonas aeruginosa, more than 50 µM; in [2], 4.2 µg/mL (≈ 12.3 µM); with Escherichia coli it was more than 50 µM; with Staphylococcus aureus, 50 µM (≈ 17 µg/mL). The IC50 with CHO-K1 [1] is more than 50 µg/mL. Moreover, the Activity result in the data set on B16-F10 and in the data set on MCF7 was “Non-Toxic” in each case. Moreover, the inhibition entry (in [4]; in data set [6]; in the data set on Mycobacteroides chelonae) was “inactive” each time. Besides, the inhibition at 10 µM in data set [5] came to 91.7%. Besides, the selectivity ratio in data set [7] was more than 11.9.

For the molecule `COc1ncnc(Cn2cc(C(=O)NCCO)c3ncc(C)cc32)c1C` [TBA-7371], the MIC in data set [8] lay within 0.78 to 3.12 µM (≈ 0.277 to 1.11 µg/mL).
